{"source": "paper PMC6971011", "about": "“Conformational changes in Apolipoprotein N-acyltransferase (Lnt)” (Scientific Reports, 2020)", "biological_target": "T1, Apolipoprotein N-acyltransferase (Lnt); Lnt-C1, Lnt-C2 (Escherichia coli, UniProt P23930)", "T1 construct": "full length; C1: fifteen-residue C-terminal tail with His8-tag kept; C2: N-terminal His6-tag TEV-cleaved, two extra N-terminal residues; expressed in E. coli C41, detergent-purified", "experiment": "X-ray crystallography ([…] Å) and LC-MS/MS of tryptic peptide", "type": "binding", "details": "covalent; thioester on active site C387 (acyl-enzyme intermediate, co-purified from expression host); Lnt-C1 chain B; vapor diffusion, pH 6.4", "data": [{"molecule": "CCCCCCCCCCCCCCCC(=O)O", "note": "[palmitate]", "values": [{"measurement": "X-ray crystallography (3.5 Å) and LC-MS/MS of tryptic peptide", "value": "mass spectrometry analysis (Fig. 3D) on purified Lnt that identified a palmitoyl modification at position C387"}]}]}
